Measured values as given in patent US8227501B2, “1,6-dihydro-2H-3-oxa-6-aza-as-indacene compounds” (Ferrer Internacional, S.A., priority 2008, dated 2012).

Tests used:
[1] = therapeutic use in humans; cited from earlier work
[2] = molecular target: T1, recombinant human-MT1 receptor (Homo sapiens, UniProt P48039); experiment: In vitro MT1 screening, agonist activity (AequoScreen aequorin luminescence); assay type: cell-based; conditions: percentage of activity relative to the reference agonist at the EC100 concentration
T1 construct: expressed in transfected cells; host or cells: unnamed cell line stably overexpressing human MT1, co-expressing mitochondrial apoaequorin and Gα16
Description: To proceed with compound screening over MT1 receptor, a cell line characterised by a stable overexpression of recombinant human-MT1 receptor was used. This line co-expresses mitochondrial apoaequorin and subunit Gα16.
Subunit Gα16 belongs to […], in which intracelular signal transduction is produced via phospholipase (PLC). Activation of PLC produces an increment of inositol-triphosphate levels and intracellular calcium levels. This increment in calcium levels is, therefore, independent and full compatible with the signal transduction of MT1 receptor.
After binding to calcium, aequorin carries out the oxidation of colenterazine to colenteramide, a luminescent reaction.
Assay protocol for agonist screening consists in an overnight incubation of cells and colenterazine, being performed by an AequoScreen™ system instrument, PerkinElmer, USA. After that this mixture was injected over a plate that contains the solution of the compounds to screen and luminescence was immediately read. Only in case of antagonism screening, after 15-30 min of the first injection the reference agonist was added in the same well, and then luminescence was measured.
Agonist activity was calculated as percentage of activity relative to the reference agonist at the EC100 concentration. Activity of antagonists was expressed as the inhibition percentage over the activity of reference agonist at its EC80, concentration.

T1 sequence (P48039 whole entry): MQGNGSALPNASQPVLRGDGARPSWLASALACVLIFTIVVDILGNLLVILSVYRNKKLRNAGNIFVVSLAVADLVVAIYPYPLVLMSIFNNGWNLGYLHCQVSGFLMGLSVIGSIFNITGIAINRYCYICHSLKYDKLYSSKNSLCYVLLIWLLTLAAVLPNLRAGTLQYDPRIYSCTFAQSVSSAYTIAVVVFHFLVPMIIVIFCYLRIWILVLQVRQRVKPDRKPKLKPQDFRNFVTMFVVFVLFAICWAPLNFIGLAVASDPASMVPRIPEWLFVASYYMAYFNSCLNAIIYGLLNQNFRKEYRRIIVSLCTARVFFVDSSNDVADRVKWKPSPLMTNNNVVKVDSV

Row | Agonism percentages of MT1, 1 nM ([2]; 1 nM compound) | Agonism percentages of MT1, 100 nM ([2]; 100 nM compound) | activation at 0.001 µM ([2]; 1 nM compound, read-out: Agonism percentages of MT1, 1 nM) | activation at 0.1 µM ([2]; 100 nM compound, read-out: Agonism percentages of MT1, 100 nM) | Compound | half-life [1]
1 | 48.0% | 102.6% |  |  | COc1ccc2[nH]cc(CCNC(C)=O)c2c1 [Melatonin, reference compound] | minutes
2 |  |  | 47.4% | 118% | CCC(=O)NCC[C@@H]1CCc2ccc3c(c21)CCO3 [Ramelteon, N-[2-[(8S)-1,6,7,8-tetrahydro-2H-indeno[5,4-b]furan-8-yl)ethyl]propionamide, reference compound] | 
